Test results as given in paper PMC9241669, “Allantodapsone is a Pan-Inhibitor of Staphylococcus aureus Adhesion to Fibrinogen, Loricrin, and Cytokeratin 10” (Microbiology Spectrum, 2022).
Where “and” joins values, the source holds several entries; their conditions need not be identical. Equal entries are not always repeated. Where two headings read alike, the source gives them in different places.

Key:
L. lactis ClfB = assay: Adhesion of L. lactis ClfB to immobilized fibrinogen; assay type: cell-based, Lactococcus lactis
Procedure: FIG 1 Allantodapsone inhibits S. aureus Newman adhesion to fibrinogen. Dose response curves for S. aureus Newman (A), L. lactis ClfA (B), and L. lactis ClfB (C) adhesion to fibrinogen. Fibrinogen was used to coat plates at 4°C overnight at 10 μg/mL. Wells were washed with PBS and blocked with 1% BSA. Washed bacteria (OD600 of 1) were mixed with the relevant concentration of allantodapsone or vehicle control (DMSO) for 5 min, and added to the wells, incubating for 2 h at 37°C. Adherent cells were washed, fixed, and stained with crystal violet, and wells further washed. The dye was dissolved in acetic acid and the absorbance measured at 570 nm. IC50 values were generated using GraphPad Prism 9.0 GraphPad software, San Diego, CA. Data are representative of three experiments with error presented as SEM.
Adhesion assays were carried out according to Hartford et al. ([37]). Briefly, plates were coated with 10 μg/mL fibrinogen (Calbiochem, Darmstadt, Germany) or 20 μg/mL fibronectin (Sigma-Aldrich, Ireland) for 2 h at 37°C or for 16 h at 4°C. Plates were blocked with 1% BSA at 37°C for 1 h and washed 3 times in PBS. Washed bacteria were incubated at 37°C for 2 h. […] Plates were read at 570 nm on a Wallac Victor2, (Shelton, CT, USA). The minimum adhesion inhibitory concentration (MAIC) was determined as the concentration inhibiting greater than 90% bacterial adhesion. […]

S. aureus SH1000 = assay: Adhesion of S. aureus SH1000 to fibronectin; assay type: cell-based, Staphylococcus aureus; details: fibronectin 20 μg/mL, Fig. S2
Procedure: Adhesion assays were carried out according to Hartford et al. ([37]). Briefly, plates were coated with 10 μg/mL fibrinogen (Calbiochem, Darmstadt, Germany) or 20 μg/mL fibronectin (Sigma-Aldrich, Ireland) for 2 h at 37°C or for 16 h at 4°C. Plates were blocked with 1% BSA at 37°C for 1 h and washed 3 times in PBS. Washed bacteria were incubated at 37°C for 2 h. Adherent bacteria were washed three times in PBS and fixed in 5–9% formaldehyde at room temperature for 30 min. Wells were washed three times in PBS and stained using 5% crystal violet for 20 min. Wells were washed three times in PBS, and the crystal violet solubilized using 5% acetic acid. Plates were read at 570 nm on a Wallac Victor2, (Shelton, CT, USA). The minimum adhesion inhibitory concentration (MAIC) was determined as the concentration inhibiting greater than 90% bacterial adhesion. […]
fibronectin. Fibronectin was used to coat plates at 4 °C overnight at 20 μg/mL.
Wells were washed with PBS and blocked with 1% BSA. Washed bacteria (OD600 of 1) were added with the relevant concentration of allantodapsone or vehicle control, and incubated for 2 hours at 37 °C. Adherent cells were washed, fixed, stained with crystal violet and wells further washed. The dye was dissolved in acetic acid and the absorbance measured at 570 nm. […]

U-937 cells = assay type: cell-based, human; details: 100 μM, undifferentiated U-937 monocyte cells, n=2, preliminary
Procedure: (§1) V. Microbiology: Materials and Methods
(§2) The MTT toxicity assay (1) (Vybrant MTT Cell Proliferation Assay, Molecular Probes, Or, USA) was used to measure cytotoxicity. Myeloid lineage, U-937 cells (2) were grown in RPMI-1640 (Gibco) culture medium supplemented with 10% foetal calf serum, 1% L-glutamine and 1% Penicillin/Streptomycin (Gibco). U-937 cells were centrifuged and cells diluted with fresh medium containing 1.2 mM MTT solution to a concentration of (5-6 x 10^6 per mL) and incubated at 37 °C for 2 h. Cells were centrifuged and the pellet dissolved in DMSO. The absorbance was read at 490 nm using the Wallac Victor2, (Shelton, Connecticut, USA).
(§3) Platelet aggregation was performed in platelet rich plasma according to O’Brien et al.
(§4) S. aureus Newman (stationary phase) was washed and diluted to an OD600 of 2.5.
(§5) This was mixed with 10 mg/mL of fibrinogen in 1:1 ratio resulting in a final concentration 5 mg/mL fibrinogen. Fibrinogen -bacteria aggregates clump and settle at the bottom of the tube resulting in a clear solution. These were compared to the turbid bacterial suspension in buffer by visual inspection. […]
was tested for toxicity using the MTT assay (VybrantTM MTT Cell Proliferation Assay, Molecular Probes, OR, USA). 10% DMSO is used as a positive control in this assay.
Allantodapsone was incubated with undifferentiated U-937 monocyte cells at 100
µM. […]

[1] = test system: platelet aggregation induced by S. aureus Newman; assay: Platelet aggregation induced by S. aureus Newman in platelet rich plasma; assay type: cell-based, human; details: 100 μM allantodapsone, 5 minutes prior to aggregation
Procedure: as §1, §2, §3, §4, §5
of S. aureus Newman was used as an agonist to stimulate platelet aggregation. […] Data was analysed by repeated measures ANOVA followed by a multiple comparison Dunnett’s test. […]

## Nc1ccc(S(=O)(=O)c2ccc(NCN3C(=O)NC(=O)C(=O)C3=O)cc2)cc1 [Allantodapsone]
L. lactis ClfB; L. lactis ClfB, fibrinogen
  minimum adhesion inhibitory concentration (MAIC): 33 μM and 13.3 μg/mL
L. lactis ClfB; Lactococcus lactis, read-out: IC50, inhibition of adhesion to fibrinogen
  IC50: 11 µM
S. aureus SH1000
  inhibition of adhesion to fibronectin (words): does not inhibit
S. aureus SH1000; listed as allantodapsone
  inhibition of adhesion to fibronectin (words): did not inhibit
U-937 cells
  toxic effect on human cells, MTT (words): no toxic effect
U-937 cells; listed as allantodapsone
  toxic effect on human cells, MTT (words): no toxic effects
[1]
  inhibition of S. aureus Newman induced platelet aggregation: did not inhibit
